Publication PMC5349447, “Applying a high-throughput fluorescence polarization assay for the discovery of chemical probes blocking La:RNA interactions in vitro and in cells” (PLoS ONE, 2017)

How the values were obtained:
La:fPolyU complex = test system: T1, La:fPolyU complex; experiment: EMSA, compound competition, La-WT:fPolyU; type: binding, human
T1 construct: His; made in house; host or cells: E. coli BL21
Experimental: (§1) 12% native TBE polyacrylamide gels were prepared in a Mini-PROTEAN Tetra Handcast System (BioRad). The gel was pre-run for 30 min at 140 V in 1x TBE buffer (45 mM Tris/HCl pH 8.5, 45 mM boric acid, 1 mM EDTA). To prepare the RNA-mix, fluorescence labeled RNA oligoribonucleotides (oligos) were diluted in fluorescence polarization buffer (20 mM Tris/HCl (pH 7.4), 150 mM NaCl, 3.0 mM MgCl2, 0.5 mM EDTA, 0.05% (v/v) IGEPAL), mixed for 10 min at 80°C, and then immediately placed on ice for at least 5 min. All RNA oligos were used at a final concentration of 50 nM. Recombinant La protein was diluted in D-buffer (20 mM Tris/ HCl (pH 7.4), 150mM NaCl, 3mM MgCl2, 0.5mM EDTA, 5% glycerol) and placed on ice until use.
(§2) La titration was performed at final concentrations of 20, 40, 60, 100, 200, 300, 400, 500, 600 nM La. Three different La concentrations were used for compound studies: 60 nM for fD1 RNA, 200 nM for fPolyU RNA, and 150 nM for TOPf RNA studies. Two μl of diluted compound (diluted in 100% DMSO) or 2 μl 100% DMSO (control reaction) was combined with 8 μl La-mix in a 96-well plate. 10 μl RNA-mix was added, mixed for 2 min, and incubated for 10 min at RT in the dark. […] The La-RNA complex (La-RNP) formation was quantified using the ImageQuant TL software. […]

La:TOPf complex = test system: T2, La:TOPf complex; experiment: EMSA, compound competition, La-WT:TOPf; type: binding, human; conditions: TOPf 50 nM
T2 construct: His; made in house; host or cells: E. coli BL21
Experimental: as §1, §2

HEK293 cells = experiment: HEK293 cell proliferation and viability; type: cell-based, human; conditions: data not shown
[1] = test system: Bcl2 protein level in SCC 22B cells; experiment: Immunoblot for Bcl2, SCC 22B; type: cell-based, human; conditions: cisplatin and C2.01 (50 μM) versus vehicle
[2] = test system: Bcl2 protein level in SCC 22A cells; experiment: Immunoblot for Bcl2, SCC 22A; type: cell-based, human; conditions: cisplatin and C2.01 (50 μM) versus vehicle
[3] = test system: T3, gfp-tagged La-WT association with cellular mRNAs; experiment: RNA immunoprecipitation (RIP) with RT-qPCR in HEK293 expressing gfp-tagged La; type: cell-based, human; conditions: 150 μM, HEK293 gfpLa
T3 construct: full length La (La wildtype, La-WT); expressed in transfected cells
Experimental: RIP experiments were performed with HEK293 stably expressing gfp (green fluorescent protein)-tagged La wiltype (La-WT) protein as described recently. The compound C2:01 was dissolved in 100% DMSO to a concentration of 100 mM. Subsequently, the compound was diluted in media to 10 mM (10% DMSO) and 1 mM (1% DMSO). The 1 mM stock was diluted 6.7-fold in culture media to reach a final concentration of 150 μM (0.15% DMSO). Cells were washed with ice-cold 1x PBS, and lysed by incubating with lysis buffer (20 mM Tris-HCl, (pH 7.4), 150 mM NaCl, 1% IGEPAL CA-630, 10% glycerol, 1 mM EDTA, 50mM NaF, and 1 mM DTT, supplemented with RNase inhibitors and protease inhibitors) on tube rotator for 15 min at 4°C. The cell lysate was sonicated (3 sec for 10 times at power 3, Sonic Dismembrator Model 100) and cleared by centrifugation at 14,000 g at 4°C for 20 min. The cleared lysate was incubated with anti-gfp magnetic beads (MBL International) on the orbital rotor at 4°C overnight. The beads were washed four times with wash buffer I (50 mM Tris-HCl (pH 7.4), 300 mM NaCl, 0.05% IGEPAL CA-630, 20 mM EDTA, 1 mM DTT, and 1 mM MgCl2) and three times with wash buffer II (50 mM Tris-HCl (pH 7.4), 300 mM NaCl, 0.05% IGEPAL CA-630, 20 mM EDTA, 1 mM DTT, 1 mM MgCl2 and 1 M urea)[29].
For preparation of the RNA, the beads were resuspended in wash buffer II and RNA was extracted by applying the Phenol-Chloroform-Isoamyl alcohol method. […] The RNA pellet was dissolved in RNase-DNase-free H2O and quantitated by NanoDrop spectrophotometer and subjected to RT-qPCR analysis. By RT-qPCR the La-specific RIP-RNA pellets (gfp-tagged La) were tested for the presence of Bcl2, CCND1, L37, L22 and S6 mRNA and none of those were detected in the control RIP experiments (gfp alone). The enrichment was calculated by establishing standard curves for specific mRNAs using the RT^2 qPCR Primer Assays (Qiagen): Bcl2 (PPH00079B), CCND1 (PPH00128F), L37 (QT00014105), L22 (QT00079982), S6 (QT02505328) as described recently. […]

For `O=C(O)c1ccccc1C(=O)c1ccc(O)cc1O` [C2, 2-(2,4-dihydroxybenzoyl)benzoic acid], the “concentration impairing La:PolyU complex formation (EMSA)” value (La:fPolyU complex; La-WT 200 nM, fPolyU 50 nM, highest concentration tested) was 10 mM and the “impairment of La:TOPf complex formation (EMSA), in words” value (La:TOPf complex; La-WT 200 nM) was “only at the highest concentration tested”.

With `Cc1ccc(C(=O)c2ccccc2C(=O)O)c(O)c1` [C2.01, 2-(2-hydroxy-4-methylbenzoyl)benzoic acid] the “cell proliferation and viability of HEK293 cells” value (HEK293 cells; 150 μM or below) was “not”, the “cell proliferation and viability of HEK293 cells” value (HEK293 cells; 300 or 450 μM) was “impaired” and the “Bcl2 protein levels (immunoblot)” value [1] was “reduced”. The “Bcl2 protein levels (immunoblot)” value [2] was “reduced”, the “binding of La to Bcl2 mRNA in cells (RIP)” value [3] was “selectively impaired” and the “binding of La to CCND1 mRNA in cells (RIP)” value [3] was “selectively impaired”. For the same molecule, the “binding of La to TOP mRNAs encoding RPL37, RPL5 and RPSK6 in cells (RIP)” value [3] was “no effect”.

`CCOC(=O)c1ccc2c(c1)C1C=CCC1C(C(=O)O)N2` (centres unmarked) [C6, 8-(ethoxycarbonyl)-3a,4,5,9b-tetrahydro-3Hcyclopenta[c]quinoline-4-carboxylic acid] was tested, and the “competition for La:fPolyU complex formation (EMSA), in words” value (La:fPolyU complex; compared with La:fD1 and La:TOPf) was “weaker competitor” and the “concentration blocking La-WT:TOPf complex formation (EMSA)” value (La:TOPf complex; La-WT 150 nM) was 10 µM.
